Data published in patent US7388006B2, “Non-steroidal progesting” (Bayer Schering Pharma AG, priority 2002, dated 2008).

Tests used:
[1] = system: pregnancy in ovariectomized rats; test: Pregnancy maintenance test in rat; format: in vivo; details: for Maintenance of pregnancy, factor compared to R5020: potency relative to R5020
Description: In rats, castration induces termination of pregnancy. Progestins (combined with estrogens) are capable of maintaining pregnancy in castrated animals. However, the degree of pregnancy maintenance in castrated rats is optimal only in a defined dose range. Therefore, higher as well as lower doses generally induce a weaker effect. Accompanying treatment with defined doses of estrone (E1) increases the pregnancy maintaining effect of progestins.
Pregnant rats (Wistar Han, SPF) of 190 to 220 g (5 to 8 animals per dose) are ovariectomized on day 8 of pregnancy, 2 hours after the first substance administration. From day 8 to day 14, rats are daily treated with test progestin in combination with a standard dose of E1. One day later, animals are killed with carbon dioxide. For each animal, the number of living and dead fetuses is determined according to the heartbeat of the embryos. In case of empty uteri, the number of implantation sites is determined by means of staining with a 10% ammonium sulfide solution.
S.c. (subcutaneous) application: The test progestin is dissolved in benzyl benzoate/castor oil (1+4 v/v), and the daily dose is administered in a volume of 1 ml/kg body weight.
P.o. (peroral) application: The test progestin is suspended in a carrier liquid (85 mg Myrj^R in 100 ml 0.9% w/v NaCl solution), and the daily dose is administered in a volume of 2 ml/kg body weight.
I.p. (intraperitoneal) application: The test progestin is dissolved in propylene glycol and charged in miniature osmotic pumps (type 2001, 1.0 μl/h, 7 days), which are placed in the abdominal cavity of the rat.
The standard dose of estrone is 0.005 mg/kg body weight s.c. and is dissolved in benzyl benzoate/castor oil ([…]).
It is determined the pregnancy maintenance per animal [%], the pregnancy maintenance per dose (median of single values) and the EC50 (dose, at which pregnancy is maintained in 50% of the animals; 100% corresponds to control animals that are not ovariectomized). The results of the test are further discussed below in c).

[2] = system: uterine growth in ovariectomized estradiol-treated rats; test: Antiuterotropic activity in the rat (uterine weight, epithelial height); format: in vivo; details: for Functional antiestrogenic effect (uterine weight gain, epithelial cell height): 3 days
Description: Compounds with estrogenic activity induce uterine growth, resulting in an increase in uterine weight. They also induce a characteristic change of the appearance of the endometrial epithelium as indicated by an increase in epithelial height. PR modulators counteract estrogenic activity by inhibiting uterine weight gain and epithelial cell proliferation. This effect is sometimes referred to as “functional antiestrogenic” effect.
To test for antiuterotropic activity of the most preferred progestin according to the present invention, i.e., compound ((+)-1), ovariectormized rats are treated for 3 days with 0.3 μg/kg/d estradiol (E2) and in addition with increasing doses of ((+)-1) (cf. FIG. 4). Each test group shown in FIG. 4 consists of 10 rats, with the exception of one group (cf. FIG. 4, bottom diagram, 150 μg/kg of ((+)-1)), indicated by “#”), which consists of nine rats.
Changes in uterine weight, luminal epithelial height and the status of cell proliferation and keratinization of the vaginal smear servs as parameters for estrogenic activity. In combination with ((+)-1), decreases in estrogen-stimulated uterine weight gain and luminal epithelial height are parameters for antiestrogenic activity (cf. FIG. 4).
For the reference group (estradiol (E2)-treated), stimulation of the uterine weight and the luminal epithelial height in comparison to the vehicle control was calculated as follows: […]
In the antiestrogen assay, inhibition of uterine weight or luminal epithelial height in comparison to the effect seen with the reference compound (estradiol) was calculated as follows: […]
For statistical analysis, the 95% confidence interval was calculated using a software which was developed by the Biostatistical Department of Schering AG. The asterisks indicate a significant difference (p<0.05).

`O=C1OCc2cc(NC(=O)C(O)(CC3(c4cc(C(F)(F)F)ccc4F)CC3)C(F)(F)F)ccc21` (single isomer, unassigned; (+)) [((+)-1), (+)-5-{2-hydroxy-3-[1-(2-fluoro-5-trifluoromethylphenyl)-cyclopropyl]-2-trifluoromethyl-propionylamino}-phthalide] was tested, and the “Androgenic activity in the pregnancy maintenance test” value ([1]; dose 100 times higher than the dose required for maintaining pregnancy) was “no androgenic activity”, the “Pregnancy-maintaining activity EC50 value” ([1]; rat) was 12 µg/kg/day and the “Maintenance of pregnancy, factor compared to R5020” value ([1]; rat) was “eight times as potent”. The “Maintenance of pregnancy, factor compared to R5020” value ([1]; rat, listed as ((+)−1)) was 8, the “Functional antiestrogenic effect (uterine weight gain, epithelial cell height)” value ([2]; 5 μg/kg/d with estradiol) was “submaximum effect” and the “Functional antiestrogenic effect (uterine weight gain, epithelial cell height)” value ([2]; 15 μg/kg/d with estradiol) was “Maximum effect”. For the same compound, the “Functional antiestrogenic effect, in words” value ([2]; in combination with estradiol, FIG. 4) was “strong functional antiestrogenic effect”.
